Measurements from ChEMBL document CHEMBL5674860, “Optimized Dual-Glo Assay to identify co-culture-induced drug vulnerabilities in 3D CRC models” (2024).

Experiments:
Assay type in all cases: functional, Homo sapiens
Design in all cases: dose or concentration left out as unconfirmed
[1] = system: Colon cancer organoid; experiment: Optimized Dual-Glo assay to identify co-culture induced drug vulnerabilities using donated chemical probes and chemogenomics kinase set in O06 CRC organoid and F06 CAF mono and co-culture. […] Cell viability is reported both mono and co-culture models.
[2] = system: Colon cancer organoid; experiment: Optimized Dual-Glo assay to identify co-culture induced drug vulnerabilities using donated chemical probes and chemogenomics kinase set in O14 CRC organoid and F14 CAF mono and co-culture. […] Cell viability is reported both mono and co-culture models.
[3] = system: Colon cancer organoid; experiment: Optimized Dual-Glo assay to identify co-culture induced drug vulnerabilities using donated chemical probes and chemogenomics kinase set in O20 CRC organoid and F20 CAF mono and co-culture. […] Cell viability is reported both mono and co-culture models.
[4] = Culture type Co-Culture, Transduced with Lucferase2-P2A-EGFP lentivirus
[5] = Culture type Co-Culture, Transduced with Renilla-dsRed lentivirus
[6] = Culture type Mono-Culture, Transduced with Lucferase2-P2A-EGFP lentivirus
[7] = Culture type Mono-Culture, Transduced with Renilla-dsRed lentivirus

SMILES	Cell Viability [1, 4] [%]	Cell Viability [1, 5] [%]	Cell Viability [1, 6] [%]	Cell Viability [1, 7] [%]	Cell Viability [2, 4] [%]	Cell Viability [2, 5] [%]	Cell Viability [2, 6] [%]	Cell Viability [2, 7] [%]	Cell Viability [3, 4] [%]	Cell Viability [3, 5] [%]	Cell Viability [3, 6] [%]	Cell Viability [3, 7] [%]
Cc1c(C(=O)O)cc(-c2ccc(C3CCNCC3)cc2)c2ccc(-c3ccc(C(F)(F)F)cc3)cc12.Cl	69.2582	93.9723	78.1885	87.9203	89.0162	119.102	89.8992	99.4723	115.549	99.1911	103.532	103.975
COc1cc(N(C)c2ccnc3ccc(C(F)(F)F)cc23)cc(OC)c1OC	161.309	161.036	102.201	116.943	114.205	95.5273	120.439	84.9016	76.7382	110.267	123.073	118.477
CN(C)C(=O)Cn1cc(-c2ccc(-c3cncc4ccccc34)cc2)cn1	83.3121	47.4852	74.4895	24.5354	86.7541	14.5396	75.1396	23.2323	97.1634	25.8647	131.343	32.5119
Cc1cnc(-c2cc(Cl)ccc2F)cc1-n1c(=O)n(CC(N)=O)c2ccccc21 [Al11]	79.8154	66.9379	96.9616	102.254	93.5042	89.0527	114.229	91.7467	99.824	109.542	113.608	109.646
CC(C)C(=O)Nc1n[nH]c2cc(-c3cccc(NS(=O)(=O)C4CC4)c3)ccc12	155.711	134.333	107.561	124.696	100.589	100.218	136.967	94.5263	85.5363	102.387	113.542	124.62
CCOC(=O)CCNc1cc(N2CCc3ccccc3CC2)nc(-c2cccnc2)n1	130.773	124.082	90.274	111.34	62.9469	109.109	99.8423	94.8955	102.18	131.422	61.9891	99.1525
NS(=O)(=O)c1cc(NC(=O)C2(c3ccccc3Cl)CC2)ccc1Oc1cccc(Cl)c1 [BAY-207]	80.0716	155.512	77.1877	150.163	108.195	102.868	157.597	122.925	177.814	111.752	143.896	130.032
Cl.O=C(O)c1cc(-c2ccc(C3CCNCC3)cc2)c2ccc(-c3ccc(C(F)(F)F)cc3)cc2c1	107.895	117.47	95.8495	93.2112	74.9682	122.124	85.098	99.5367	105.826	101.384	71.4178	87.2658
Cc1c(C(=O)Nc2ccc(Oc3ccnc4[nH]cc(-c5ccccc5)c34)c(F)c2)c(=O)n(-c2ccc(F)cc2)n1C	73.6786	56.2803	78.2312	39.3734	84.4536	22.1268	155.311	25.4653	223.97	22.9382	217.145	43.0843
CNCc1ccccc1-c1csc([C@@H](C)Nc2nc(C)nc3cc(OC)c(OC)cc23)c1 [BAY-293]	76.9111	225.989	4.78	87.8539	46.6211	132.811	47.2835	107.217	78.2703	145.24	64.4683	82.7466
CC(C)(O)CNc1ncc(-c2ccnc(Nc3ccnc(Cl)c3)n2)c(CC2CC2)n1	30.6205	168.017	58.1247	187.59	100.5	183.934	107.577	192.643	67.7034	172.835	40.8339	186.893
O=C(NCCCN1CCOC1=O)c1cnc(NCc2cc(Br)ccc2Br)nc1NC1CCCC1	110.394	154.807	109.931	185.402	74.8932	125.798	157.235	136.857	103.947	94.0994	97.7699	110.221
CCN(CCO)CCCOc1ccc2c(Nc3cc(CC(=O)Nc4cccc(F)c4)[nH]n3)ncnc2c1 [DEFOSBARASERTIB]	10.7234	183.999	3.3988	94.753	15.638	174.95	26.1499	95.9515	5.365	225.013	11.3206	105.29
CC(=O)Nc1ncc(CN2CCC[C@H](Cc3cc(C)nc(C)c3)C2)s1 [JNJ-65355394]	144.109	117.923	95.1702	105.247	87.2976	97.4656	96.7484	85.3088	88.5022	103.797	76.2761	119.778
O=C(c1ccc(F)c(F)c1Nc1ccc(I)cc1F)N1CC(O)([C@@H]2CCCCN2)C1 [COBIMETINIB]	5.143	42.4292	6.053	35.0976	2.787	24.389	1.583	12.612	4.023	77.761	4.662	37.2771
Cc1cc(CN)cc(C)c1-c1ncn(C)c1-c1ccnc2cc(F)ccc12.Cl	105.057	123.721	137.219	129.63	87.6168	103.014	105.617	97.8671	143.957	87.6481	139.188	92.4746
COc1cccc(CNC(=O)c2nc3scc(CN(C)Cc4ccccc4)c3c(=O)[nH]2)c1 [T-26f]	114.676	151.389	102.721	101.465	86.5179	95.8142	82.3734	95.7877	156.545	109.586	116.769	103.534
CC(C)(C)OC(=O)N1CCCC1CNC1CCC(c2cc(F)ccc2F)(S(=O)(=O)c2ccc(Cl)cc2)CC1 (stereo unspecified) [GSI-NC]	109.794	188.651	83.1857	79.5795	82.5384	107.99	97.33	95.7632	93.8933	100.789	108.621	95.0953
